Molecular target: T1, CT (mitochondrial citrate transporter) (Mucor circinelloides, UniProt S2JNX7)
T1 construct: gene HMPREF1544_02933; complete ct gene, codon-optimised, pET30a(+) NdeI-ATG-ct-Histag-stop-HindIII (C-terminal His tag kept); E. coli BL21(DE3) inclusion bodies, urea-solubilised, Ni column, renatured, reconstituted in liposomes; about 32 kDa; three Mtc domains 10-104, 106-199, 209-296
T1 sequence (S2JNX7 1-301): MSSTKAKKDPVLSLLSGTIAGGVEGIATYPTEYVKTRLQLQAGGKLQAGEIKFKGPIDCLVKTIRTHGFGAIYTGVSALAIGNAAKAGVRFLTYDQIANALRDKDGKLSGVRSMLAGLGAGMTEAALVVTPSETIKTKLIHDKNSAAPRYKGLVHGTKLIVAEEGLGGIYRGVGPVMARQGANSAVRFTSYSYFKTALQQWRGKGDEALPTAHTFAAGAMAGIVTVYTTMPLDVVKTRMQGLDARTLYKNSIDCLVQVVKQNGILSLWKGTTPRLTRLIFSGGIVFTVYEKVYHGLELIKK
Assay: inhibition of […]citrate/citrate exchange in CT-reconstituted liposomes
Type: biochemical
Conditions: 20 mM inhibitor; 0.01 mM [14C]citrate outside, 10 mM citrate inside; 2 min

Cc1ncc(COP(=O)(O)O)c(C=O)c1O [pyridoxal-5'-phosphate]
inhibition at 20 mM: This activity was inhibited strongly by PLP

From publication PMC8160456, “Molecular Mechanism of Citrate Efflux by the Mitochondrial Citrate Transporter CT in Filamentous Fungus Mucor circinelloides WJ11” (Frontiers in Microbiology, 2021)
